Data from patent US12324809B2, “Fluoro beta-carboline compounds” (OSSIFI THERAPEUTICS LLC, priority 2018, dated 2025).

Assays:
sclerostin = target: T1, sclerostin (Homo sapiens, UniProt Q9BQB4); test: Modulation of sclerostin/Wnt activity: restoring Wnt3a signaling in the presence of sclerostin; format: cell-based; set-up: key to Sclerostin Inhibition Assay; improvement over sclerostin alone: − indicates no improvement over sclerostin protein alone; + indicates an IC100 >10 μM; ++ indicates an IC100 <10 μM; settings: for Sclerostin Inhibition Assay; improvement over sclerostin alone: IC100 class, Wnt3a signaling in human embryonic cells in presence of sclerostin
T1 construct: host or cells: human embryonic cells (the assay cells)
T1 sequence (Q9BQB4 24-213): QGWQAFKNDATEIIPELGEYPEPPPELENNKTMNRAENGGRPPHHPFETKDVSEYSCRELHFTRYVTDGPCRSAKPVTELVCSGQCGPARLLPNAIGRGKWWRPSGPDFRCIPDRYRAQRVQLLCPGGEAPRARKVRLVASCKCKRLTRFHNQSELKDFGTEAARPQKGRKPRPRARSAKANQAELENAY
Experimental: Compounds synthesized in accordance with the methods of Examples 1-14 were assayed for their ability to restore Wnt signaling in the presence of sclerostin consistent with a known sclerostin antagonist, sclerostin Mab. See, Ellies et al., J Bone Miner Res 21:1738-1749 (2006). […] The addition of a known sclerostin antagonist inhibited sclerostin inhibition of Wnt3a signaling, thus restoring Wnt3a signaling in the cell (IC100 at 10 μM) (data not shown).

[1] = Metabolic stability in pooled human liver microsomes; format: in vitro ADME; settings: 0.1 μM compound, human liver microsomes 0.1 mg/mL, NADPH, 37 °C, 60 minutes
Experimental: Compounds of the present invention (0.1 μM) were incubated with microsomes at 37 °C for a total of 60 minutes. The reaction contained pooled human liver microsomal protein (0.1 mg/mL) in potassium phosphate buffer with NADPH. At the indicated time points (0, 5, 15, 30 and 60 minutes). Samples were analyzed by LC/MS/MS and remaining parent drug was calculated using Microsoft Excel (2007). Obach R S, Drug Metab Dispos. 27(11):1350-1359 (1999).

[2] = system: MC3T3-E1 (mouse calvarial) osteoblast cells; test: Bone formation assay: rescue of sclerostin inhibition of mineralization (calcium concentration); format: cell-based; set-up: key to Sclerostin Inhibition of Mineralization; improvement over sclerostin alone: − indicates no improvement over sclerostin protein alone; + indicates an IC100 >10 μM; ++ indicates an IC100 <10 μM; settings: for IC100: Mus musculus, MC3T3-E1, IC100 class, read-out: Sclerostin Inhibition of Mineralization, improvement over sclerostin alone; for Sclerostin Inhibition of Mineralization; improvement over sclerostin alone: IC100 class
Experimental: Mineralization (crystalline calcium phosphate formation) represents an in vitro model of bone formation. Using an assay in which the amount of mineralization is quantified by measuring total calcium after solubilization of deposited crystalline calcium phosphate, sclerostin was previously shown to inhibit mineralization in MC3T3-E1 (mouse calvarial) osteoblast cells. Li et al., J Bone Miner Res 24:578-588 (2008). Following the protocol described in Li et al., Compounds were assayed for their ability to rescue the inhibition of mineralization by sclerostin in MC3T3 osteoblast cells. […] Addition of a compound of Examples 1-14 neutralized sclerostin-mediated inhibition of mineralization, as reflected by the increase in calcium concentration.

COc1ccc2c3ccnc(C(F)(F)F)c3n(CCN3CCOCC3)c2c1F.Cl [Example 1, 4-(2-(8-Fluoro-7-methoxy-1-(trifluoromethyl)-9H-pyrido[3,4-b]indol-9-yl)ethyl)morpholine Hydrochloride Salt]
Sclerostin Inhibition Assay; improvement over sclerostin alone (sclerostin): + (+ indicates an IC100 >10 μM)
Metabolic Stability [1]: ++ (++ indicates a stability >1x)
IC100 [2]: > 10 µM

COc1cc2c(cc1F)c1ccnc(C(F)(F)F)c1n2CCN1CCOCC1.Cl [Example 2, 4-(2-(6-fluoro-7-methoxy-1-(trifluoromethyl)-9H-pyrido[3,4-b]indol-9-yl)ethyl)morpholine Hydrochloride Salt]
Sclerostin Inhibition Assay; improvement over sclerostin alone (sclerostin): ++ (++ indicates an IC100 <10 μM)
Metabolic Stability [1]: ++ (++ indicates a stability >1x)
IC100 [2]: < 10 µM

COc1cc2c(cc1F)c1ccnc(C(F)(F)F)c1n2CCN1CCC(OC)CC1.Cl [Example 3, 6-Fluoro-7-methoxy-9-(2-(4-methoxypiperidin-1-yl)ethyl)-1-(trifluoromethyl)-9H-pyrido[3,4-b]indole Hydrochloride Salt]
Sclerostin Inhibition Assay; improvement over sclerostin alone (sclerostin): ++ (++ indicates an IC100 <10 μM)
Metabolic Stability [1]: ++ (++ indicates a stability >1x)
IC100 [2]: < 10 µM

COc1cc2c(cc1F)c1ccnc(C(F)(F)F)c1n2CCN1CCN(C)C(=O)C1.Cl [Example 4, 4-(2-(6-Fluoro-7-methoxy-1-(trifluoromethyl)-9H-pyrido[3,4-b]indol-9-yl)ethyl)-1-methylpiperazin-2-one Hydrochloride Salt]
Sclerostin Inhibition Assay; improvement over sclerostin alone (sclerostin): + (+ indicates an IC100 >10 μM)
Metabolic Stability [1]: ++ (++ indicates a stability >1x)
IC100 [2]: > 10 µM

COc1cc2c(cc1F)c1ccnc(C(F)(F)F)c1n2CCN1CC(OC(F)F)C1.Cl [Example 5, 9-(2-(3-(Difluoromethoxy)azetidin-1-yl)ethyl)-6-fluoro-7-methoxy-1-(trifluoromethyl)-9H-pyrido[3,4-b]indole Hydrochloride Salt]
Sclerostin Inhibition Assay; improvement over sclerostin alone (sclerostin): ++ (++ indicates an IC100 <10 μM)
Metabolic Stability [1]: ++ (++ indicates a stability >1x)
IC100 [2]: < 10 µM

COc1cc2c(cc1F)c1ccnc(C(F)(F)F)c1n2CCN1CC2CCC(C1)O2.Cl [Example 6, 3-(2-(6-Fluoro-7-methoxy-1-(trifluoromethyl)-9H-pyrido[3,4-b]indol-9-yl)ethyl)-8-oxa-3-azabicyclo[3.2.1]octane Hydrochloride Salt]
Sclerostin Inhibition Assay; improvement over sclerostin alone (sclerostin): ++ (++ indicates an IC100 <10 μM)
Metabolic Stability [1]: ++ (++ indicates a stability >1x)
IC100 [2]: < 10 µM

COc1cc2c(cc1F)c1ccnc(C(F)(F)F)c1n2CCN1C2CCC1COC2.Cl [Example 7, 8-(2-(6-Fluoro-7-methoxy-1-(trifluoromethyl)-9H-pyrido[3,4-b]indol-9-yl)ethyl)-3-oxa-8-azabicyclo[3.2.1]octane Hydrochloride Salt]
Sclerostin Inhibition Assay; improvement over sclerostin alone (sclerostin): ++ (++ indicates an IC100 <10 μM)
Metabolic Stability [1]: + (+ indicates a stability of <1x)
IC100 [2]: < 10 µM

COc1cc2c(cc1F)c1ccnc(C(F)(F)F)c1n2CCN1CC2CC1CO2.Cl (stereo not shown) [Example 8, 5-(2-(6-Fluoro-7-methoxy-1-(trifluoromethyl)-9H-pyrido[3,4-b]indol-9-yl)ethyl)-2-oxa-5-azabicyclo[2.2.1]heptane Hydrochloride Salt]
Sclerostin Inhibition Assay; improvement over sclerostin alone (sclerostin): ++ (++ indicates an IC100 <10 μM)
Metabolic Stability [1]: + (+ indicates a stability of <1x)
IC100 [2]: < 10 µM

COc1cc2c(cc1F)c1ccnc(C(F)(F)F)c1n2CCN1CC(OC)C(OC)C1.Cl (stereo not shown) [Example 9, 9-(2-(3,4-Dimethoxypyrrolidin-1-yl)ethyl)-6-fluoro-7-methoxy-1-(trifluoromethyl)-9H-pyrido[3,4-b]indole Hydrochloride Salt]
Sclerostin Inhibition Assay; improvement over sclerostin alone (sclerostin): ++ (++ indicates an IC100 <10 μM)
Metabolic Stability [1]: + (+ indicates a stability of <1x)
IC100 [2]: < 10 µM

COc1cc2c(cc1F)c1ccnc(C(F)(F)F)c1n2CCN1CCC(OC)C1.Cl (stereo not shown) [Example 10, 6-Fluoro-7-methoxy-9-(2-(3-methoxypyrrolidin-1-yl)ethyl)-1-(trifluoromethyl)-9H-pyrido[3,4-b]indole Hydrochloride Salt]
Sclerostin Inhibition Assay; improvement over sclerostin alone (sclerostin): ++ (++ indicates an IC100 <10 μM)
Metabolic Stability [1]: ++ (++ indicates a stability >1x)
IC100 [2]: < 10 µM

COc1cc2c(cc1F)c1ccnc(C(F)(F)F)c1n2CCN1CC2COCC2C1.Cl (stereo not shown) [Example 11, 5-(2-(6-Fluoro-7-methoxy-1-(trifluoromethyl)-9H-pyrido[3,4-b]indol-9-yl)ethyl)hexahydro-1H-furo[3,4-c]pyrrole Hydrochloride Salt]
Sclerostin Inhibition Assay; improvement over sclerostin alone (sclerostin): ++ (++ indicates an IC100 <10 μM)
Metabolic Stability [1]: ++ (++ indicates a stability >1x)
IC100 [2]: < 10 µM

COc1cc2c(cc1F)c1ccnc(C(F)(F)F)c1n2CCN1CCC(F)(F)CC1.Cl [Example 12, 9-(2-(4,4-Difluoropiperidin-1-yl)ethyl)-6-fluoro-7-methoxy-1-(trifluoromethyl)-9H-pyrido[3,4-b]indole Hydrochloride Salt]
Sclerostin Inhibition Assay; improvement over sclerostin alone (sclerostin): −
Metabolic Stability [1]: ++ (++ indicates a stability >1x)
Sclerostin Inhibition of Mineralization; improvement over sclerostin alone [2]: −

COc1cc2c(cc1F)c1ccnc(C(F)(F)F)c1n2CCn1cncn1.Cl [Example 13, 9-(2-(1H-1,2,4-Triazol-1-yl)ethyl)-6-fluoro-7-methoxy-1-(trifluoromethyl)-9H-pyrido[3,4-b]indole Hydrochloride Salt]
Sclerostin Inhibition Assay; improvement over sclerostin alone (sclerostin): −
Metabolic Stability [1]: ++ (++ indicates a stability >1x)
Sclerostin Inhibition of Mineralization; improvement over sclerostin alone [2]: −

COc1c(F)cc2c3ccnc(C(F)(F)F)c3n(CCN3CCOCC3)c2c1F.Cl [Example 14, 4-(2-(6,8-Difluoro-7-methoxy-1-(trifluoromethyl)-9H-pyrido[3,4-b]indol-9-yl)ethyl)morpholine Hydrochloride Salt]
Sclerostin Inhibition Assay; improvement over sclerostin alone (sclerostin): ++ (++ indicates an IC100 <10 μM)
Metabolic Stability [1]: + (+ indicates a stability of <1x)
IC100 [2]: < 10 µM

Sclerostin protein: protein that antagonizes Wnt3a signaling and inhibits mineralization; the assay's inhibitor and baseline
Sclerostin Inhibition Assay; improvement over sclerostin alone (sclerostin): −
Effect of sclerostin on Wnt3a signaling (in words) (sclerostin; human embryonic cells): antagonized Wnt3a signaling
Effect of sclerostin treatment alone on mineralization (in words) [2]: significant decrease in mineralization
Sclerostin Inhibition of Mineralization; improvement over sclerostin alone [2]: −
